Experimental data taken from ChEMBL document CHEMBL3243971, “Synthesis and beta-adrenoceptor activity of the erythro and threo isomers of substituted alpha-hydroxytrimetoquinol” (J Med Chem, 1978).

Experiments:
[1] = organism: Cavia porcellus; assay: Intrinsic activity at beta-adrenoceptor in guinea pig trachea assessed as tracheal relaxation at 10^-10 to 10^-4 M relative to control; type: tissue-based
[2] = organism: Cavia porcellus; assay: Agonist activity at beta-adrenoceptor in guinea pig trachea assessed as tracheal relaxation; type: tissue-based
[3] = organism: Cavia porcellus; assay: Intrinsic activity at beta-adrenoceptor in guinea pig atrium assessed as positive chronotropic effect at 10^-10 to 10^-4 M relative to control; type: tissue-based; conditions: Cardiac atrium
[4] = organism: Cavia porcellus; assay: Agonist activity at beta-adrenoceptor in guinea pig atrium assessed as positive chronotropic effect; type: tissue-based; conditions: Cardiac atrium
[5] = molecular target: T1, Adrenergic receptor beta (Rattus norvegicus) (UniProt P18090+P10608+P26255); conditions: Sprague-Dawley
Description: Agonist activity at beta-adrenoceptor in Sprague-Dawley rat fat cells assessed as cAMP accumulation after 10 mins

[6] = molecular target: T1, Adrenergic receptor beta (Rattus norvegicus); conditions: Sprague-Dawley, Plasma
Description: Agonist activity at beta-adrenoceptor in Sprague-Dawley rat adipocytes assessed as adenylate cyclase activity in plasmalemma measured as radiolabelled cAMP level after 10 mins by scintillation counting

[7] = molecular target: T1, Adrenergic receptor beta (Rattus norvegicus); conditions: Sprague-Dawley; remark: listed apart in the source
Description: Agonist activity at beta-adrenoceptor in Sprague-Dawley rat adipocytes assessed as lipolysis measured as glycerol release

pD2 [5] | pD2 [6] | pD2 [7] | SMILES | Intrinsic activity [1] | pD2 [2] | Intrinsic activity [3] | pD2 [4]
6.7 | 6.8 | 7 | COc1cc([C@H](O)[C@@H]2NCCc3cc(O)c(O)cc32)cc(OC)c1OC (racemic) | 0.88 | 6.8 | 0.8 | 6.5
6.4 | 6.2 | 6.8 | COc1cc([C@@H](O)[C@@H]2NCCc3cc(O)c(O)cc32)cc(OC)c1OC (racemic) | 0.76 | 6 | 0.78 | 6.1
7.7 | 8.5 | 7.3 | COc1cc(C[C@@H]2NCCc3cc(O)c(O)cc32)cc(OC)c1OC (racemic) | 0.88 | 9 | 0.9 | 9.1
